# Reference: patent US8946201B2, “Methods for inhibiting TGF-β” (Saint Louis University, priority 2007, dated 2015)
# Entries after “also recorded” stand apart in the source; their conditions may differ.
# Assays:
# [1] = system: pig burn wounds; assay: Pig skin burn injury model: wound healing and scar; type: in vivo; conditions: topical; for wound closure / open wound: post-burn day 38
# Method: FIG. 6. Wound closure and scar formation in pig burn wounds treated with cholesterol (CHO). Burn wounds treated with 0.025% cholesterol (A,B) and 0.00625% cholesterol (E,F) and vehicle only (C,D) were photographed immediately after burn injury (A,C,E) and at postburn day 38 (B,D,F). After burn injury, necrosis was present (white) (A,C,E).
# Four pigs weighing 20-25 kg were anesthetized by intramuscular injection of ketamine (5 mg/kg), strenil (cazaporonum) (20 mg/kg) and atropine ([…]). Six uniform burn wounds (110° C., 30 sec) were then made symmetrically on the back of each pig using a modified soldering iron with a flat contact area of ˜20 cm^2. […] After wounding, IntraSite gels containing TGF-β antagonist and buffer vehicle (as control) were applied to the pig burn wounds. The burn wound received no topical gel treatment was also used as the other control. All wounds were dressed with paraffin gauze. TGF-β antagonist gel and control gel were applied to the wounds every two days for the first 10 days and twice a week for the next 30 days. All wounds were cleaned and measured prior to each application of the IntraSite gel.
# Wound healing was assessed by evaluating the rates of wound re-epithelialization and contraction. The open wound area and the area enclosed by the normal hair bearing skin were measured using the macrophotography technique. The healing rate was monitored every two days for the first 10 days and twice a week for 30 more days. Wound re-epithelialization or contraction as a percent of the original wound size was calculated as described previously.
# The volumes of scar were estimated by multiplying their thickness by the size of the scar on post-burn day 41 in pigs and on post-excision day 10 in rabbits.
# These include: 1) Cholesterol treatment of cells suppresses TGF-β-induced cellular responsiveness including TGF-β induced Smad2 phosphorylation and nuclear translocation and TGF-β-induced expression of plasminogen activator inhibitor-1 (PAI-1). PAI-1 gene expression has commonly been used as an indicator of TGF-β-induced cellular responsiveness and PAI-1 is involved in inhibiting degradation of ECM proteins. And 2) Cholesterol treatment reverses TGF-β-induced growth inhibition in Mv1Lu cells. Since TGF-β negatively regulates normal wound healing and mediates skin fibrosis and scarring, we decided to test the effect of cholesterol on wound healing and scar formation in a pig skin burn injury model. Six thermal burns (110° C., 30 sec.; ˜20 cm^2, three on each side) were created on the back on each pig (20 kg, female). After wounding, two lesions were treated with a thin-layer of gel containing 0.025% cholesterol; two received gel containing 0.006% cholesterol and two received gel containing vehicle only. Cholesterol and cholesterol gels were applied every 2 days for the first 10 days and twice a week for the nest 30 days at which time re-epithelialization was measured and photographed. […] The volumes of the scar tissue in wound treated with 0.025% and 0.00625% cholesterol were 0.01 and 0.20±0.04 cm^3, respectively. The volume of the scar tissue in wounds treated with vehicle only was 0.45±0.03 cm^3.
# [2] = system: TβR-II; assay: TGF-β1-induced degradation of TβR-II, Western blot; type: cell-based
# Method: (E) Cells were treated with several concentrations of cholesterol (a,b) or LDL (c,d) as indicated in the presence and absence of 1% β-CD at 37° C. for 1 hr and further incubated with 50 pM TGF-β for 1 hr. The cell lysates were then subjected to 7.5% SDS-PAGE and Western blot analysis using antibodies to TβR-II and α-actin (a,c). The relative intensities of TβR-II and α-actin on the blot were quantified by densitometry (b,d). The ratio of the relative intensities of TβR-II and α-actin in cells treated without TGF-β1 was taken as the 100% level of TβR-II.
# (F, G) Cells were treated with or without 1 μM lovastatin/fluvastatin or nystatin (25 μg/ml)/cholesterol (50 μg/ml) at 37° C. for 16 hr or 1 hr, respectively. The treated cells were directly analyzed by sucrose density gradient ultracentrifugation analysis (F) or further incubated with 50 pM TGF-β at 37° C. for several time periods as indicated (G). Western blot analysis of the sucrose density gradient fractions (F) and of TGF-β1-treated cell lysates (G) was performed using antibody to TβR-II. The relative levels of TβR-II and α-actin were quantified by densitometry. Fractions ⅘ and 7 represent lipid raft/caveolae and non-lipid raft fractions, respectively. […] The quantitative data from three independent analyses is shown (G, bottom). […]
# Cells grown to near confluence on 12-well cluster dishes were treated with cholesterol or LDL in serum-free DMEM (vol.=0.5 ml/well) at 37° C. for 1 hr. […] Treated cells were lysed and cell lysates were analyzed by 7.5% SDS-PAGE and Western blot analysis using anti-Smad2, anti-P-Smad2, anti-caveolin-1, anti-TβR-I (alk5) or anti-TβR-II antibodies as described previously (30). […]
# Lipid raft/caveolae-mediated endocytosis of receptor-bound TGF-β results in rapid degradation of TGF-β1 and suppression of TGF-β responsiveness. […] To test this, we analyzed the lipid raft/caveolae and non-lipid raft localization of TβR-I and TβR-II in the plasma membrane of cells treated with or without cholesterol (50 μg/ml) using sucrose density gradient ultracentrifugation analysis. […]
smiles,measurement,setting,value
CC(C)CCC[C@@H](C)[C@H]1CC[C@H]2[C@@H]3CC=C4C[C@@H](O)CC[C@]4(C)[C@H]3CC[C@]12C [cholesterol],volume of the scar tissue,[1]; 0.00625% cholesterol gel,0.20±0.04 cm^3
same,wound closure / open wound,[1]; 0.00625% cholesterol gel,no and almost complete
same,surface of wounds,[1]; 0.025% cholesterol gel,very smooth without apparent scar
same,volume of the scar tissue,[1]; 0.025% cholesterol gel,0.01 cm^3
same,wound closure / open wound,[1]; 0.025% cholesterol gel,very little open wound; also recorded: complete
same,"TβR-II degradation, treatment alone","[2]; cholesterol 10 μg/ml or LDL 15 μg protein/ml, without TGF-β1",did not induce
same,enhancement of TGF-β1-induced degradation of TβR-II,"[2]; cholesterol 10 μg/ml, LDL 15 μg protein/ml, 1 hr, then 50 pM TGF-β 1 hr",70%
